Data reported in US20040204423A1, “Crystalline antifungal polymorph” (priority 1997, published 2004).

Assay: Solid-state stability of polymorph Form I: conversion into other forms under normal storage and stress conditions
Type: physicochemical
From the text: The three crystalline polymorphic forms of the compound of formula designated as Form 1, II and III can readily be distinguished from one another by examination of the characteristic x-ray Diffraction patterns (see FIGS. 1-3), the characteristic infrared spectra (see FIGS. 4-6) and the characteristic Differential Scanning Calorimetry ([…]) thermograms (FIGS. 7-9).

Measured: conversion into any other form

CCC([C@H](C)O)n1ncn(-c2ccc(N3CCN(c4ccc(OC[C@@H]5CO[C@@](Cn6cncn6)(c6ccc(F)cc6F)C5)cc4)CC3)cc2)c1=O (single isomer, unassigned; (-)) [Form 1]
did not convert into any other form: normal storage conditions (15′-30° C. and protected from light) | stress condition: 75% relative humidity at 40° C. for 6 weeks | stress condition: 75° C. for 6 weeks | stress condition: 97% relative humidity at ambient temperature for 2 minutes | stress condition: 150° C. for 2 hours
